According to ChEMBL document CHEMBL3779781, “New direct inhibitors of InhA with antimycobacterial activity based on a tetrahydropyran scaffold” (Eur J Med Chem, 2016):
In brackets after ≈: the same amount, converted by molar mass.

How the values were obtained:
[1] = Inhibition of Mycobacterium tuberculosis InhA using 2-trans-decenoyl-CoA as substrate by fluorimetric analysis in presence of NADH
[2] = test system: Mycobacterium tuberculosis; assay: Antimycobacterial activity against Mycobacterium tuberculosis H37Rv ATCC 25618 after 2 weeks; type: functional; settings: H37Rv ATCC 25618, 336 h
[3] = Cytotoxicity against human HepG2 cells by ATP bioluminescence assay; type: cell-based; settings: read-out: TD50 (the source's name)
[4] = Kinetic solubility of compound in DMSO/phosphate buffered saline at pH7.4 by chemiluminescent nitrogen detection method; type: physicochemical; settings: pH 7.4, read-out: Kinetic_solubility
Haemophilus influenzae [5] = assay: Antibacterial activity against Haemophilus influenzae Q1 by broth microdilution assay; type: functional
[6] = test system: Mycobacterium tuberculosis; assay: Antimycobacterial activity against Mycobacterium tuberculosis H37Rv ATCC 25618 infected in human THP1 cells assessed as reduction in cell viability after 5 days by luciferase reporter gene assay; type: functional; settings: H37Rv ATCC 25618, THP-1, 120 h
Escherichia coli = assay: Antibacterial activity against Escherichia coli 3 by broth microdilution assay; type: functional
Streptococcus pneumoniae [7] = assay: Antibacterial activity against Streptococcus pneumoniae 1629 by broth microdilution assay; type: functional
Enterococcus faecium = assay: Antibacterial activity against Enterococcus faecium X7501 by broth microdilution assay; type: functional
Streptococcus pneumoniae [8] = assay: Antibacterial activity against Streptococcus pneumoniae ERY2 by broth microdilution assay; type: functional
Moraxella catarrhalis = assay: Antibacterial activity against Moraxella catarrhalis 1502 by broth microdilution assay; type: functional
[9] = Selectivity index, ratio of TD50 for human HepG2 cells to MIC for Mycobacterium tuberculosis H37Rv ATCC 25618; type: toxicity, cell-based; settings: read-out: Selectivity Index
Haemophilus influenzae [10] = assay: Antibacterial activity against Haemophilus influenzae H128 with Acr A- genotype by broth microdilution assay; type: functional
Staphylococcus aureus [11] = assay: Antibacterial activity against Staphylococcus aureus WCUH29 fmt by broth microdilution assay; type: functional
Streptococcus pneumoniae [12] = assay: Antibacterial activity against Streptococcus pneumoniae N1387 by broth microdilution assay; type: functional
Staphylococcus aureus [13] = assay: Antibacterial activity against Staphylococcus aureus WCUH29 by broth microdilution assay; type: functional
Haemophilus influenzae [14] = assay: Antibacterial activity against Haemophilus influenzae H128 by broth microdilution assay; type: functional
Streptococcus pyogenes [15] = assay: Antibacterial activity against Streptococcus pyogenes 1307006P by broth microdilution assay; type: functional
Enterococcus faecalis = assay: Antibacterial activity against Enterococcus faecalis 1 by broth microdilution assay; type: functional
Staphylococcus aureus [16] = assay: Antibacterial activity against Staphylococcus aureus Oxford by broth microdilution assay; type: functional
Streptococcus pyogenes [17] = assay: Antibacterial activity against Streptococcus pyogenes 1308007P by broth microdilution assay; type: functional
[18] = test system: Mycobacterium tuberculosis; assay: Antimycobacterial activity against Mycobacterium tuberculosis H37Rv by broth microdilution assay; type: functional
[19] = test system: Mycobacterium tuberculosis; assay: Antimycobacterial activity against Mycobacterium tuberculosis H37Rv; type: functional
[20] = molecular target: Voltage-gated inwardly rectifying potassium channel KCNH2 (Homo sapiens, UniProt Q12809); assay: Inhibition of human ERG by QPatch assay
Sequence of Voltage-gated inwardly rectifying potassium channel KCNH2 (Q12809 whole entry): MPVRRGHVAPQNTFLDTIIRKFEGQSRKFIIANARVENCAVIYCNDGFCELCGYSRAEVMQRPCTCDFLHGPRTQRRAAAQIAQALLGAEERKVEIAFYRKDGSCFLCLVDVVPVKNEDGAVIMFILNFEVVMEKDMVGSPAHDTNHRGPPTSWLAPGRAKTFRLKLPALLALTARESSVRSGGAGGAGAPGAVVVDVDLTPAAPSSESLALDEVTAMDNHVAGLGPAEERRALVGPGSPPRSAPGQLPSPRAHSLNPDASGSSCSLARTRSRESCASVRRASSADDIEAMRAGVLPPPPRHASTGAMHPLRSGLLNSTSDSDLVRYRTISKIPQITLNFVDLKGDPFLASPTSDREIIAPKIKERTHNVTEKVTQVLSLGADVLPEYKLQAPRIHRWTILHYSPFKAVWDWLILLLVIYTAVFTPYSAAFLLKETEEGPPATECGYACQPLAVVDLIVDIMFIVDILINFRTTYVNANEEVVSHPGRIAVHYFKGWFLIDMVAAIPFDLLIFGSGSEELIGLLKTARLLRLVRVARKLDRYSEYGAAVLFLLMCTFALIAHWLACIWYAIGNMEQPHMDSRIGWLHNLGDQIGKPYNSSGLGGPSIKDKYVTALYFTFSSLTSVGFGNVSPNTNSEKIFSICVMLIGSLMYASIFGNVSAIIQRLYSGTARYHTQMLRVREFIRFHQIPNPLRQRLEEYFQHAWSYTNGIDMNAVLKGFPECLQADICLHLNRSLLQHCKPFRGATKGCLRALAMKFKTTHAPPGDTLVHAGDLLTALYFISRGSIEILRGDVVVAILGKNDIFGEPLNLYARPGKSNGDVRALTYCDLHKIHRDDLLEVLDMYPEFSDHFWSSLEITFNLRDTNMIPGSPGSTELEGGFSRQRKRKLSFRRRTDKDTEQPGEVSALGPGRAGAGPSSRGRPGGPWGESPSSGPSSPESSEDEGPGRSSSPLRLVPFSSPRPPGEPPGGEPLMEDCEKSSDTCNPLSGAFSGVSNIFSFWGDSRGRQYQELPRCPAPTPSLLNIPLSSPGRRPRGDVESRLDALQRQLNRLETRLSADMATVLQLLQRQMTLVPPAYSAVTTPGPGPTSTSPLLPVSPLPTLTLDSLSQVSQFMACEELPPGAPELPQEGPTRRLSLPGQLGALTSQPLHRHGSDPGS

SMILES	IC50 [1]	MIC [2]	CC50 [3]	solubility kinetic [4]	further results
Cc1cc(C)n(Cc2ccc(C(=O)NCC3(c4ccc5c(c4)OCO5)CCOCC3)cc2)n1	7.94 µM	125 µM (≈ 55.9 µg/mL)	> 100 µM	≥ 478 µM	
Cc1cnc(Nc2ccc(C(=O)NCC3(c4nc(-c5ccccc5)cs4)CCOCC3)cc2)s1	> 10 µM	> 80 µM	> 100 µM	< 1 µM	
O=C(NCC1(c2nc(-c3ccccc3)cs2)CCOCC1)c1ccc(CN2CCCCC2)cc1	> 1 µM	> 125 µM	79.4 µM	≥ 396 µM	
O=C(NCC1(c2nc(-c3ccccc3)cs2)CCOCC1)c1ccc(-c2cnco2)cc1	> 1 µM	125 µM (≈ 55.7 µg/mL)	79.4 µM	71 µM (≈ 31.6 µg/mL)	
Cc1cc(C)n(-c2ccc(C(=O)NCC3(c4nc(-c5ccccc5)cs4)CCOCC3)cc2)n1	> 100 µM	80 µM (≈ 37.8 µg/mL)	87.1 µM	33 µM (≈ 15.6 µg/mL)	
COc1ccc(C2(CNC(=O)c3ccc(Cn4nc(C)cc4C)cc3)CCOCC2)cc1	6.38 µM	> 125 µM	> 100 µM	≥ 458 µM	
Cc1cc(C)n(Cc2ccc(C(=O)NCC3(c4nc(-c5ccccc5)cs4)CCOCC3)cc2)n1	0.02 µM	11.7 µM (≈ 5.69 µg/mL)	100 µM	115 µM (≈ 56 µg/mL)	MIC80 (Haemophilus influenzae [5]): > 64 µg/mL; IC90 [6]: 3.98 µM; MIC80 (Escherichia coli): > 64 µg/mL; MIC80 (Streptococcus pneumoniae [7]): > 64 µg/mL; MIC80 (Enterococcus faecium): > 64 µg/mL; MIC80 (Streptococcus pneumoniae [8]): > 64 µg/mL; MIC80 (Moraxella catarrhalis): 32 µg/mL (≈ 65.8 µM); selectivity ratio [9]: 8.5; MIC80 (Haemophilus influenzae [10]): > 64 µg/mL; MIC80 (Staphylococcus aureus [11]): > 64 µg/mL; MIC80 (Streptococcus pneumoniae [12]): > 64 µg/mL; MIC80 (Staphylococcus aureus [13]): > 64 µg/mL; MIC80 (Haemophilus influenzae [14]): > 64 µg/mL; MIC80 (Streptococcus pyogenes [15]): > 64 µg/mL; MIC80 (Enterococcus faecalis): > 64 µg/mL; MIC80 (Staphylococcus aureus [16]): > 64 µg/mL; MIC80 (Streptococcus pyogenes [17]): > 64 µg/mL; MIC80 [18]: 5.7 µg/mL (≈ 11.7 µM); MIC [19]: 7.8 µM; IC50 [20]: 44.9 µM
Cn1ccc(Nc2ccc(C(=O)NCC3(c4nc(-c5ccccc5)cs4)CCOCC3)cc2)n1	5.56 µM	> 125 µM	79.4 µM	48 µM (≈ 22.7 µg/mL)	
O=C(NCC1(c2nc(-c3ccccc3)cs2)CCOCC1)c1ccc(-n2ccnc2)cc1	> 1 µM	> 125 µM	> 100 µM	193 µM (≈ 85.8 µg/mL)	
O=C(NCC1(c2nc(-c3ccccc3)cs2)CCOCC1)c1ccc(-n2cncn2)cc1	> 10 µM	125 µM (≈ 55.7 µg/mL)	> 100 µM	191 µM (≈ 85.1 µg/mL)	
O=C(NCC1(c2nc(-c3ccccc3)cs2)CCOCC1)c1ccc(Nc2nncs2)cc1	> 10 µM	> 125 µM	63.1 µM	29 µM (≈ 13.9 µg/mL)	
O=C(NCC1(c2nc(-c3ccccc3)cs2)CCOCC1)c1ccc(Nc2ccccn2)cc1	> 10 µM	> 80 µM	63.1 µM	12 µM (≈ 5.65 µg/mL)	
Cn1c(Nc2ccc(C(=O)NCC3(c4nc(-c5ccccc5)cs4)CCOCC3)cc2)nc2ccccc21	> 10 µM	94 µM (≈ 49.2 µg/mL)	20 µM	10 µM (≈ 5.24 µg/mL)	
O=C(NCC1(c2nc(-c3ccccc3)cs2)CCOCC1)c1ccc(Nc2nc3ccccc3s2)cc1	> 10 µM	> 125 µM	12.6 µM	4 µM (≈ 2.11 µg/mL)	
O=C(NCC1(c2nc(-c3ccccc3)cs2)CCOCC1)c1ccc(N2CCOCC2)cc1	> 1 µM	> 125 µM	> 100 µM	138 µM (≈ 64 µg/mL)	
COc1ccccc1-c1csc(C2(CNC(=O)c3ccc(Cn4nc(C)cc4C)cc3)CCOCC2)n1	0.036 µM	5 µM (≈ 2.58 µg/mL)	50.1 µM	78 µM (≈ 40.3 µg/mL)	selectivity ratio [9]: 10
COc1cccc(-c2csc(C3(CNC(=O)c4ccc(Cn5nc(C)cc5C)cc4)CCOCC3)n2)c1	0.323 µM	20 µM (≈ 10.3 µg/mL)	50.1 µM	72 µM (≈ 37.2 µg/mL)	
Cc1cc(C)n(Cc2ccc(C(=O)NCC3(c4ccccn4)CCOCC3)cc2)n1	> 10 µM	> 125 µM	> 100 µM	≥ 445 µM	
Cc1cc(C)n(Cc2ccc(C(=O)NCC3(c4ccc(-c5ccccc5)cc4)CCOCC3)cc2)n1	0.029 µM	16 µM (≈ 7.67 µg/mL)	79.4 µM	77 µM (≈ 36.9 µg/mL)	selectivity ratio [9]: 5
NNC(=O)c1ccncc1 [ISONIAZID]					MIC [19]: 0.5 µg/mL
